Legend:
[1] = test system: DAOY human brain tumor cells; experiment: CAM assay: angiogenesis and growth of DAOY tumors on chick chorioallantoic membrane; format: in vivo; details: 100 μg into a CAM vein, 6 days
Procedure: (§1) CAM assay: Egg supplier and preparation have been described earlier (23). Tumor cells were plated in 50 μl PBS at 4×10^6 cells/egg for DAOY and 3.5×10^6 cells/egg for U87MG. Cells were grown to tumors for 7 days, then harvested under sterile conditions, trimmed to similar sizes and […] onto the CAM of 10-day-old embryos. […] Tumors were photographed in situ after 7 days of growth, then harvested, weighed and fixed in 4% buffered formalin and embedded in paraffin. After serial sectioning, slides were stained with hematoxilin and eosin.
(§2) To assess the effect of αv antagonism on brain tumor associated angiogenesis, DAOY and U87MG human brain tumor cells were grown on chick chorioallantoic membranes (CAMs). The tumors were allowed to grow for 7 days before they were removed and reimplanted onto fresh CAMs. 24 hours after transfer, 100 μg of either the active cRGD peptide or control peptide (cRAD) was injected into a CAM vein. Tumors were grown for an additional 6 days and then weighed and analyzed for vascularization. […] In contrast to control tumors, which increased 80% in weight, αv-antagonist treated tumors decreased 30% in weight (FIG. 1b).
(§3) FIGS. 1a and 1b show the inhibition of angiogenesis (a) and tumor growth on the CAM (b) by an αv-antagonist. Brain tumors grown on CAMs were harvested and cut to similar sizes and placed on fresh CAMs of 10-day-old chicken eggs. The following day, 100 μg of active αv-inhibitor or control peptide were injected into the chicken veins and grown for another 6 days. […] Tumors placed on the CAM were weighed at the beginning and end of the experiment (b). The weight of the tumors treated with the control peptide increased by 80% for both tumor types (left, n=8), whereas it decreased by about 30% when the active peptide was administered (right, n=8).

[2] = test system: U87MG human brain tumor cells; experiment: CAM assay: angiogenesis and growth of U87MG tumors on chick chorioallantoic membrane; format: in vivo; details: 100 μg into a CAM vein, 6 days
Procedure: as §1, §2, §3

DAOY cells [3] = experiment: Vitronectin adhesion, DAOY; format: cell-based, human; details: test substance 20 μg/ml
Procedure: (§4) Adhesion: Assay conditions were as previously described (15). Non-tissue culture treated wells incubated overnight at 4° C. with vitronectin (1-10 μg/ml PBS), washed and blocked for 30 min. with heat denatured 1% BSA in PBS, followed by washing with PBS. Control and test cells, pre-incubated at 37° C. with the test substance (20 μg/ml) in adhesion buffer for 30 min. were plated into wells (5×10^4 cells/well) and incubated for 1 hr at 37° C. After gentle washing of the wells with adhesion buffer, adhering cells were fixed and stained with crystal violet, the dye solubilized in methanol and the OD determined at […].
(§5) To determine if αvβ3 and αvβ5 regulate DAOY, U87MG and HBEC adhesion to vitronecin, the cells were plated in vitronectin-coated wells and allowed to adhere in the presence or absence of either blocking antibodies to αvβ3 (LM-609) and αvβ5 (P1-F6) or the cRGD peptide.

U87MG cells [4] = experiment: Vitronectin adhesion, U87MG; format: cell-based, human; details: test substance 20 μg/ml
Procedure: as §4, §5

[5] = test system: human brain endothelial cells (HBEC); experiment: Vitronectin adhesion, HBEC; format: cell-based; details: test substance 20 μg/ml
Procedure: as §4, §5

DAOY cells [6] = experiment: Vitronectin migration (Boyden chamber), DAOY; format: cell-based, human; details: test substance 20 μg/ml, 4 hrs
Procedure: (§6) Migration: Transwell polycarbonate filters (8 μm pore size) were incubated for 30 min. at 37° C. with vitronectin in PBS (1 μg/ml on the upper side and 10 μg on the bottom side), blocked for 30 min. with 1% heat denatured BSA and washed with PBS. Test cells (5×10^5/well) were added in adhesion buffer containing the test substances indicated (20 μg/ml) and incubated for 4 hrs at 37° C. with the lower chamber containing adhesion buffer. Cells in the upper chamber were removed with a cotton swab and cells on the bottom part of the filter were fixed and stained with crystal violet and the number of migrated cells determined by counting.
(§7) To address whether αvβ3 and αvβ5 modulate migration on vitronectin, independent of adhestion, we tested the same cells on vitronectin-coated membranes in Boyden chambers while in the presence of blocking antibodies or cRGD. […] Since LM-609, in the absence of P1-F6, was incapable of blocking adhesion, this anti-migratory effect must be mediated through a distinct pathway which is independent of forces responsible for adhesion.

U87MG cells [7] = experiment: Vitronectin migration (Boyden chamber), U87MG; format: cell-based, human; details: test substance 20 μg/ml, 4 hrs
Procedure: as §6, §7

[8] = test system: human brain endothelial cells (HBEC); experiment: Vitronectin migration (Boyden chamber), HBEC; format: cell-based; details: test substance 20 μg/ml, 4 hrs
Procedure: as §6, §7

DAOY cells [9] = experiment: Apoptosis on vitronectin (Annexin V-FITC FACS), DAOY; format: cell-based, human; details: 20 μg/ml, 4 hrs
Procedure: (§8) Apoptosis: Adhesion conditions were as above, except that 12 well plates covered with vitronectin and 5×10^5 cells/well were plated in adhesion buffer. […] Attached cells were trypsinized and combined with the detached cells in the supernatant and then examined for the presence of apoptotic cells using the Apo Alert Annexin V-FITC apoptosis kit (Clontech).
(§9) FIGS. 6a-6d show the integrin profile (a), effect of αv-antagonist on adhesion to (b), migration on (c) and cell viability on vitronectin (d) for brain tumor and brain capillary endothelial cells. Both DAOY and U87MG tumor cells and brain capillary cells express the integrins αvβ3 and αvβ5 (a). […] Cell viability was tested by letting the cells attach to vitronectin for 1 hour, and then exposing them for 4 hours to the control peptide or αv-antagonist (20 μg/ml) (d). Adherent and floating cells were combined and examined by FACS for apoptosis, using FITC labeled anti-annexin V and propidium iodide.
(§10) We have previously shown that pre-incubation of brain tumor or capillary cells with the cRGD peptide, or the combination of anti-αvβ3 and anti-αvβ5 antibodies, prevents cell adhesion to vitronectin. […] Attached cells were combined after trypsinization with floating cells and the number of apoptotic cells was determined by FACS, using anti-annexin V-FITC antibody and propidium iodide (Clontech Apo alert Annexin V-FITC detection apoptosis kit).

primary HBEC = experiment: Apoptosis on vitronectin (Annexin V-FITC FACS), HBEC; format: cell-based, human; details: 20 μg/ml, 4 hrs
Procedure: as §8, §9, §10

U87 glioblastoma cells [10] = experiment: Tumor cell adhesion to ECM proteins (FIG. 7), U87; format: cell-based, human; details: U87 on vitronectin and tenascin, 20 μg/ml, 8-hour incubation
Procedure: (§11) Non tissue culture dishes were incubated 1 hour at 37° C. with vitronectin, tenascin, fibronectin or collagen I (10 μg/ml), then washed with PBS. After the wash, 5×10^5 cells /well were plated and incubated for 16 hours at 37° C. The cultures were then washed and an adhesion buffer containing 20 μg/ml of pentapeptide or control peptide were added and incubated for an additional 2-24 hours. The cultures were then washed twice with adhesion buffer and stained with Crystal violet and the OD 600 determined. The more adherent cells are present, the higher the OD. Data represent adherent cells after 8-hour incubation. U87=glioblastoma and DAOY=medulloblastoma.

[11] = test system: DAOY medulloblastoma cells; experiment: Tumor cell adhesion to ECM proteins (FIG. 7), DAOY; format: cell-based, human; details: DAOY on vitronectin and tenascin, 20 μg/ml, 8-hour incubation
Procedure: as §11

U87 glioblastoma cells [12] = experiment: Apoptosis of cells grown on ECM (FIG. 8), U87; format: cell-based, human; details: 20 μg/ml, 24 hours
Procedure: as §11
(§12) Test conditions were as in FIG. 7, except that detached cells and adherent cells were combined after trypsinisation. The cells were then washed, suspended in 50 μl PBS and centrifuged in glass cover slides (cytospin). After fixation with 4% paraformaldehyde, the cells were stained for apoptosis using the Boehringer Apoptosis Kit. Results are expressed in a percentage of apoptotic cells versus total number of cells. Experiment was done after 24 hours of incubation with the peptides.

[13] = test system: DAOY medulloblastoma cells; experiment: Apoptosis of cells grown on ECM (FIG. 8), DAOY; format: cell-based, human; details: 20 μg/ml, 24 hours
Procedure: as §11, §12

brain capillary cells = experiment: Apoptosis of cells grown on ECM (FIG. 8), brain capillary cells; format: cell-based, human; details: 20 μg/ml, 24 hours
Procedure: as §11, §12

[14] = test system: M21L αv neg melanoma cells; experiment: Survival of nude mice with αv-negative melanoma cells implanted into the brain; format: in vivo; details: 10^6 cells into forebrain of nude mice
Excerpt: (§13) Mice were sacrificed when becoming cachectic and the presence of tumor was verified by autopsy.

[15] = test system: M21L αv pos melanoma cells; experiment: Survival of nude mice with αv-positive melanoma cells implanted into the brain; format: in vivo; details: 10^6 cells into forebrain of nude mice
Excerpt: as §13

DAOY cells [16] = experiment: Heterotopic (subcutaneous) tumor model, DAOY cells in nude mice
Procedure: (§14) Subcutaneous tumor growth: For subcutaneous tumor growth, the cells (10^6 mouse) were injected s.c. below the right shoulder pad immediately following intracerebral injection.
(§15) To further investigate this finding, we simultaneously injected the DAOY and U87MG cells intracranially and subcutaneously before initiating treatment with the peptides as outlined under the orthotopic model.

U87MG cells [17] = experiment: Heterotopic (subcutaneous) tumor model, U87MG cells in nude mice
Procedure: as §14, §15

DAOY cells [18] = experiment: Orthotopic brain tumor model, DAOY cells injected intracerebrally in nu/nu mice; details: for Tumor size (mm) Brain: nu/nu mice, 100 μg/mouse daily i.p. from day 7, 4 weeks total tumor growth
Procedure: (§16) Tumor cells (10^6/10 μl PBS) were injected intracerebrally at the coordinates mentioned. […] The animals were then sacrificed by CO2 anesthesia, the brains removed and either snap frozen in liquid nitrogen or fixed in buffered formalin, embedded in paraffin and the cut sections stained with Hematoxylin-Eosin.
DAOY and U87MG cells (10^6 cells/mouse) were stereotactically injected into the right frontal cortex of nu/nu mice in order to establish a system that recapitulates the brain microenvironment. […] For each time, point n=5 or 6.
(§17) Additional animals were tested for survival. Survival was measured as the time point in which mice required sacrifice, due to a moribund state. […] N for DAOY and U87MG control is 16 mice each and 32 mice for treated DAOY and 24 for treated U87MG.

U87MG cells [19] = experiment: Orthotopic brain tumor model, U87MG cells injected intracerebrally in nu/nu mice
Procedure: as §16
DAOY and U87MG cells (10^6 cells/mouse) were stereotactically injected into the right frontal cortex of nu/nu mice in order to establish a system that recapitulates the brain microenvironment.
as §17
Tumors were removed after 2 weeks of treatment, fixed in buffered formalin, embedded in paraffin and 5 μm sections obtained.

[20] = test system: C6 and 9L rat glioma xenografts; details: 1 mg/mouse/day; cited from earlier work
[21] = 100 μg/mouse/day from day 3, listed as active pentapeptide

CC(C)[C@H]1C(=O)N[C@@H](CCCN=C(N)N)C(=O)NCC(=O)N[C@@H](CC(=O)O)C(=O)N[C@H](Cc2ccccc2)C(=O)N1C [EMD 121974, cyclo(Arg-Gly-Asp-D-Phe-[N-Me]-Val)]
tumor-associated angiogenesis (stereomicroscope) [1]: significant suppression of angiogenesis | decrease of tumor weight ([1]; n=8, listed as active peptide): about 30% | decrease of tumor weight ([1]; n=8, listed as αv-antagonist): 30% | tumor-associated angiogenesis (stereomicroscope) [2]: significant suppression of angiogenesis | decrease of tumor weight ([2]; n=8, listed as active peptide): about 30% | decrease of tumor weight ([2]; n=8, listed as αv-antagonist): 30% | adhesion to vitronectin (DAOY cells [3]): Significant inhibition | adhesion to vitronectin (U87MG cells [4]): Significant inhibition | adhesion to vitronectin [5]: Significant inhibition | migration on vitronectin (DAOY cells [6]): significantly inhibited | migration on vitronectin (U87MG cells [7]): significantly inhibited | migration on vitronectin [8]: significantly inhibited | apoptosis after attachment to vitronectin (DAOY cells [9]): significant apoptosis | apoptosis after attachment to vitronectin (primary HBEC): significant apoptosis | adhesion to ECM (adherent cells, OD 600) (U87 glioblastoma cells [10]): detached from vitronectin and tenascin | adhesion to ECM (adherent cells, OD 600) [11]: detached from vitronectin and tenascin | cell survival / apoptotic cells (U87 glioblastoma cells [12]; U87 grown on collagen I or fibronectin): did not alter the survival | cell survival / apoptotic cells (U87 glioblastoma cells [12]; U87 grown on vitronectin or tenascin): increased number of dead cells | cell survival / apoptotic cells ([13]; DAOY grown on collagen I or fibronectin): did not alter the survival | cell survival / apoptotic cells ([13]; DAOY grown on vitronectin or tenascin): increased number of dead cells | cell survival / apoptotic cells (brain capillary cells; brain capillary cells grown on collagen I or fibronectin): did not alter the survival | cell survival / apoptotic cells (brain capillary cells; brain capillary cells grown on vitronectin or tenascin): increased number of dead cells | Survival ([14]; 100 μg/mouse/day from day 3): 15.7 ± 3.8 days | Survival [14, 21]: 15 days | Survival ([15]; 100 μg/mouse/day from day 3): 36.5 ± 2.9 days | Survival [15, 21]: 36 days | average size of subcutaneous tumors (DAOY cells [16]; DAOY injected into brain and subcutis, treatment from day 7, week 4 (FIG. 5)): 18 mm^3 | time to sacrifice necessitated by progressive growth of subcutaneous tumors (DAOY cells [16]; DAOY injected intracranially and subcutaneously): 10 weeks | inhibition of subcutaneous tumor growth (DAOY cells [16]; DAOY s.c. only, 100 μg/mouse daily i.p. from day 7, after 6 weeks): no inhibition of tumor growth | Tumor size (mm) Subcutis (DAOY cells [16]; DAOY s.c., 100 μg/mouse daily i.p.): 17 ± 0.84 mm | time to sacrifice necessitated by progressive growth of subcutaneous tumors (U87MG cells [17]; U87MG injected intracranially and subcutaneously): 10 weeks | inhibition of subcutaneous tumor growth (U87MG cells [17]; U87MG s.c. only, 100 μg/mouse daily i.p. from day 3, after 6 weeks): no inhibition of tumor growth | Tumor size (mm) Subcutis (U87MG cells [17]; U87MG s.c., 100 μg/mouse daily i.p.): 19 ± 0.77 mm | Mouse weight (gr) (DAOY cells [18]; 100 μg/mouse daily i.p.): 21 ± 0.89 gr | mean time to the onset of neurologic symptoms (DAOY cells [18]; 100 μg/mouse daily i.p.): no evidence of neurological symptoms at any time | mouse weight (DAOY cells [18]; 100 μg/mouse daily i.p., baseline 21 g): 21 g | survival (time point at which mice required sacrifice, moribund state) (DAOY cells [18]; i.p. 100 μg/mouse/day from day 7): ≥ 24 weeks | Tumor size (mm) Brain (DAOY cells [18]; listed as active peptide): absence or microscopic residual disease | Tumor size (mm) Brain (DAOY cells [18]; listed as αv-antagonist): no tumor or only scant residual tumor cells | size of residual tumor foci (DAOY cells [18]; treated group): smaller than 1 mm^3 | Mouse weight (gr) (U87MG cells [19]; U87MG, 100 μg/mouse daily i.p.): 20 ± 0.71 gr | mean time to the onset of neurologic symptoms (U87MG cells [19]; U87MG, 100 μg/mouse daily i.p.): no evidence of neurological symptoms at any time | mouse weight (U87MG cells [19]; U87MG, 100 μg/mouse daily i.p., baseline 21 g): 21 g | survival (time point at which mice required sacrifice, moribund state) (U87MG cells [19]; U87MG, i.p. 100 μg/mouse/day from day 3): ≥ 15 weeks | Tumor size (mm) Brain (U87MG cells [19]; U87MG, nu/nu mice, 100 μg/mouse daily i.p. from day 3, 4 weeks total tumor growth, listed as αv-antagonist): no tumor or only scant residual tumor cells | size of residual tumor foci (U87MG cells [19]; U87MG, treated group): smaller than 1 mm^3 | CD31 positive vessels in tumor sections (immunohistochemistry) (U87MG cells [19]; U87 brain tumors, 100 μg/mouse/day from day 7, 2 weeks of treatment, p<0.005): very few such vessels | apoptotic (dead) cells in tumor sections (U87MG cells [19]; U87 brain tumors, 100 μg/mouse/day from day 7, 2 weeks of treatment, p<0.02): significantly more dead cells

Angiostatin
growth inhibition of intracranial glioma xenografts [20]: considerable growth inhibition

From patent US6521593B1, “Methods for inhibiting brain tumor growth” (Childrens Hospital Los Angeles, priority 1999, dated 2003)
